Measurements as given in US8374794B1, “Protein synthesis modulators” (Rib-X Pharmaceuticals, Inc., priority 2003, dated 2013).

Target: T1, H. marismortui large ribosomal subunit (Haloarcula marismortui, UniProt P32411)
T1 construct: Ribosomes were purified and crystallized as described previously; endogenous in cells; host or cells: Haloarcula marismortui (ribosomes purified from the organism)
Experiment: X-ray diffraction of large ribosomal subunit crystals soaked with cycloheximide
Assay type: binding
Details: crystals soaked with about 30 mM cycloheximide, 1% DMSO, 4° C., 24 hours; difference Fourier maps at 3.0 A resolution
Description: The present invention is based, in part, upon the three-dimensional structure of cycloheximide when associated with the large ribosomal subunit. Crystals of the H. marismortui large ribosomal subunit were soaked with cycloheximide at a concentration of about 30 mM, which is equivalent to about […], and the structure of the large ribosome subunit complexed with cycloheximide was resolved via X-ray diffraction studies.
Briefly, a small amount of a concentrated cycloheximide solution was added to a large subunit crystal suspended in stabilization solution and incubated for several hours. Following freezing and the other procedures normally used to prepare such crystals for experimental use, X-ray diffraction data were collected from the cycloheximide containing crystals. […]
The atomic co-ordinates of the large ribosomal subunit associated with cycloheximide are recorded on compact disk, Disk No. 1, under file name cycloheximide.pdb. […]
Electron density corresponding to the antibiotic was first seen in Fo (antibiotic)-Fc (native) difference Fourier maps at 3.0 A resolution. […] The atomic co-ordinates defining the structure of cycloheximide when bound to the large ribosomal subunit are recorded on compact disk, Disk No. 1 under file name cycloheximide.pdb.

## C[C@@H]1C[C@@H]([C@H](O)CC2CC(=O)NC(=O)C2)C(=O)[C@@H](C)C1 (relative stereo) [cycloheximide, [1S-[1α(S*),3α,5β]]-4-[2-(3,5-dimethyl-2-oxocyclohexyl)-2-hydroxyethyl]-2,6-piperidinedione]
  binding of cycloheximide in the large ribosomal subunit (specific vs. non-specific sites): bound to a single location in the large ribosomal subunit
